From patent US20240317735A1, “HYDROISOQUINOLINE OR HYDRONAPHTHYRIDINE COMPOUNDS FOR THE TREATMENT OF AUTOIMMUNE DISEASE” (Hoffmann-La Roche Inc., priority 2020, published 2024)

Biological target: T1, human TLR8 (Homo sapiens, UniProt Q9NR97)
T1 construct: host or cells: HEK293 (HEK-Blue hTLR8)
T1 sequence (Q9NR97 27-1041): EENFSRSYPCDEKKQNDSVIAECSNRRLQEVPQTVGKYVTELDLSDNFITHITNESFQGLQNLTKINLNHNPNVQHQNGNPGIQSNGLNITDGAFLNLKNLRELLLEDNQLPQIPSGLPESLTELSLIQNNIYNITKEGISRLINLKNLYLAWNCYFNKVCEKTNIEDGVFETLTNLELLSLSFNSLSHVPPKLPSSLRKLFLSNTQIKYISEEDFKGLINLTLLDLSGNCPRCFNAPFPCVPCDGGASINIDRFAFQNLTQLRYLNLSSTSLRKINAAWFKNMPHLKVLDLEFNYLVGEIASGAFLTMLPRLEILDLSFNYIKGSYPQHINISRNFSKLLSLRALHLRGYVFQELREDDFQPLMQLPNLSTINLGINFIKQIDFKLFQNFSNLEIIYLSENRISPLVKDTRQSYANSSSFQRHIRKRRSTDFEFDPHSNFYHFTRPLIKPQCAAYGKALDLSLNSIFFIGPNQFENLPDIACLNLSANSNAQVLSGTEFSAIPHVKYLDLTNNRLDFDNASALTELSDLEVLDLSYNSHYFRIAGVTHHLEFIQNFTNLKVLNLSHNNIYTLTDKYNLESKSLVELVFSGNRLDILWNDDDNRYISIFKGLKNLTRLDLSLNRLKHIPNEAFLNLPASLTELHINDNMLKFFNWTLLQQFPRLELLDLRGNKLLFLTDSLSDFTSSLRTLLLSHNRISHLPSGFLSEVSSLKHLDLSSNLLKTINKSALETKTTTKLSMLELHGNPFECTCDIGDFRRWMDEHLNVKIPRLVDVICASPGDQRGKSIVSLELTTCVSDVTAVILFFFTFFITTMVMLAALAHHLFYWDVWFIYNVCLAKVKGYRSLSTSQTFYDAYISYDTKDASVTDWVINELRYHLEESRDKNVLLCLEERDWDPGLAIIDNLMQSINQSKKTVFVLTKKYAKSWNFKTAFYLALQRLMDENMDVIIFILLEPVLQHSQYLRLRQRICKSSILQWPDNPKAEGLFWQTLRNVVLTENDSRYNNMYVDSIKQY
Assay: HEK293-Blue-hTLR-8 cells assay (SEAP reporter, R848 stimulation)
Type: cell-based
Details: HEK293-Blue-hTLR8 cells, R848, 20 hrs; read-out: HEK/hTLR8 IC50
Experimental: The following tests were carried out in order to determine the activity of the compounds of formula (I) and (Ia) in HEK293-Blue-hTLR-7/8/9 cells assay.
A stable HEK293-Blue-hTLR-8 cell line was purchased from InvivoGen (Cat. #: hkb-htlr8, San Diego, California, USA). These cells were originally designed for studying the stimulation of human TLR8 by monitoring the activation of NF-κB. A SEAP (secreted embryonic alkaline phosphatase) reporter gene was placed under the control of the IFN-β minimal promoter fused to five NF-κB and AP-1-binding sites. The SEAP was induced by activating NF-κB and AP-1 via stimulating HEK-Blue hTLR8 cells with TLR8 ligands. Therefore the reporter expression was declined by TLR8 antagonist under the stimulation of a ligand, such as R848, for incubation of 20 hrs. The cell culture supernatant SEAP reporter activity was determined using QUANTI-Blue™ kit (Cat. #: rep-qb1, Invivogen, San Diego, Ca, USA) at a wavelength of 640 nm, a detection medium that turns purple or blue in the presence of alkaline phosphatase.
HEK293-Blue-hTLR8 cells were incubated at a density of 250,000˜450,000 cells/mL in a volume of 170 μL in a 96-well plate in Dulbecco's Modified Eagle's medium (DMEM) containing 4.5 g/L glucose, […] penicillin, […], […] Normocin, 2 mM L-glutamine, 10% (v/v) heat-inactivated fetal bovine serum with addition of 20 μL test compound in a serial dilution in the presence of final DMSO at 1% and 10 μL of 60 uM R848 in above DMEM, perform incubation under 37° C. in a C02 incubator for 20 hrs. Then 20 μL of the supernatant from each well was incubated with 180 μL Quanti-blue substrate solution at 37° C. for 2 hrs and the absorbance was read at 620-655 nm using a spectrophotometer. The signaling pathway that TLR8 activation leads to downstream NF-κB activation has been widely accepted, and therefore similar reporter assay was modified for evaluating TLR8 antagonist.

| IC50 | SMILES |
| --- | --- |
| 3 nM | CC1CN(c2ccc3c(c2)[C@@H](C)CN(c2ccnc4c2cnn4C)C3)CCN1 (stereo partly drawn) [Example 15, (4R)-4-methyl-6-(3-methylpiperazin-1-yl)-2-(1-methylpyrazolo[3,4-b]pyridin-4-yl)-3,4-dihydro-1H-isoquinoline] |
| 7 nM | C[C@H]1CN(c2ccnc3c2cnn3C)Cc2ccc(OCCN3CCNCC3)cc21 [Example 40, (4R)-4-methyl-2-(1-methylpyrazolo[3,4-b]pyridin-4-yl)-6-(2-piperazin-1-ylethoxy)-3,4-dihydro-1H-isoquinoline] |
| 2 nM | Cc1cc(N2Cc3ccc(N4CCNCC4)nc3[C@H](C)C2)c2cnn(C)c2n1 [Example 72, (8R)-6-(1,6-dimethylpyrazolo[3,4-b]pyridin-4-yl)-8-methyl-2-piperazin-1-yl-7,8-dihydro-5H-1,6-naphthyridine] |
| 11 nM | C[C@H]1CN(c2ccnc3c2cnn3C)Cc2ccc(N3CC4CNC[C@H]4C3=O)cc21 (relative stereo) [Example 17, cis-5-[(4R)-4-methyl-2-(1-methylpyrazolo[3,4-b]pyridin-4-yl)-3,4-dihydro-1H-isoquinolin-6-yl]-1,2,3,3a,6,6a-hexahydropyrrolo[3,4-c]pyrrol-4-one] |
| 16 nM | Cc1cc(N2Cc3cnc(OCCN4CCNCC4)cc3[C@@H](C)C2)c2cnn(C)c2n1 [Example 77, (4R)-2-(1,6-dimethylpyrazolo[3,4-b]pyridin-4-yl)-4-methyl-6-(2-piperazin-1-ylethoxy)-3,4-dihydro-1H-2,7-naphthyridine] |
| 2 nM | C[C@H]1CN(c2ccnc3c2cnn3C)Cc2ccc(O[C@@H]3C[C@H]4CNCCN4C3)cc21 [Example 42, (4R)-4-methyl-2-(1-methylpyrazolo[3,4-b]pyridin-4-yl)-6-[[(7R,8aS)-1,2,3,4,6,7,8,8a-octahydropyrrolo[1,2-a]pyrazin-7-yl]oxy]-3,4-dihydro-1H-isoquinoline] |
| 18 nM | Cn1ncc2c(N3Cc4ccc(N5CCC6(CCNCC6)CC5)cc4C(C)(C)C3)ccnc21 [Example 6, 3-[4,4-dimethyl-2-(1-methylpyrazolo[3,4-b]pyridin-4-yl)-1,3-dihydroisoquinolin-6-yl]-3,9-diazaspiro[5.5]undecane] |
| 2 nM | C[C@H]1CN(c2ccnc3c2cnn3C)Cc2ccc(N3C[C@H]4CNCCN4C3=O)cc21 [Example 24, (8aR)-2-[(4R)-4-methyl-2-(1-methylpyrazolo[3,4-b]pyridin-4-yl)-3,4-dihydro-1H-isoquinolin-6-yl]-1,5,6,7,8,8a-hexahydroimidazo[1,5-a]pyrazin-3-one] |
| 2 nM | C[C@H]1CN(c2ccnc3c2cnn3C)Cc2ccc(OC[C@H]3CNCCN3C)cc21 [Example 43, (4R)-4-methyl-2-(1-methylpyrazolo[3,4-b]pyridin-4-yl)-6-[[(2R)-1-methylpiperazin-2-yl]methoxy]-3,4-dihydro-1H-isoquinoline] |
| 6 nM | C[C@H]1CN(c2ccnc3c2cnn3C)Cc2ccc(N3C[C@@H]4CCNCC4C3=O)cc21 (relative stereo) [Example 55, cis-2-[(4R)-4-methyl-2-(1-methylpyrazolo[3,4-b]pyridin-4-yl)-3,4-dihydro-1H-isoquinolin-6-yl]-3a,4,5,6,7,7a-hexahydro-1H-pyrrolo[3,4-c]pyridin-3-one] |
| 5 nM | C[C@H]1CN(c2ccnc3c2cnn3C)Cc2ccc(N3C[C@]4(CCNC4)CC3=O)cc21 (single isomer, unassigned) [Example 54] |
| 23 nM | Cc1cc(N2Cc3cnc(N4CC5(CNCCO5)C4)cc3[C@@H](C)C2)c2cnn(C)c2n1 [Example 79, 2-[(5R)-7-(1,6-dimethylpyrazolo[3,4-b]pyridin-4-yl)-5-methyl-6,8-dihydro-5H-2,7-naphthyridin-3-yl]-5-oxa-2,8-diazaspiro[3.5]nonane] |
| 5 nM | C[C@H]1CN(c2ccnc3c2cnn3C)Cc2ccc(OC[C@@H]3CNCCN3C)cc21 [Example 44, (4R)-4-methyl-2-(1-methylpyrazolo[3,4-b]pyridin-4-yl)-6-[[(2S)-1-methylpiperazin-2-yl]methoxy]-3,4-dihydro-1H-isoquinoline] |
| < 0.3 nM | CO[C@@H]1CN(C2CCN(c3ccc4c(c3)[C@@H](C)CN(c3ccnc5c3cnn5C)C4)CC2)C[C@H]1N [Example 11, (3R,4R)-4-methoxy-1-[1-[(4R)-4-methyl-2-(1-methylpyrazolo[3,4-b]pyridin-4-yl)-3,4-dihydro-1H-isoquinolin-6-yl]-4-piperidyl]pyrrolidin-3-amine] |
| 6 nM | Cc1cc(N2Cc3ccc(N4CC5(CNCCO5)C4)cc3[C@@H](C)C2)c2cnn(C)c2n1 [Example 48, 2-[(4R)-2-(1,6-dimethylpyrazolo[3,4-b]pyridin-4-yl)-4-methyl-3,4-dihydro-1H-isoquinolin-6-yl]-5-oxa-2,8-diazaspiro[3.5]nonane] |
| 15 nM | C[C@H]1CN(c2ccnc3c2cnn3C)Cc2ccc(N3CCN(S(=O)(=O)C4CCNC4)CC3)cc21 (stereo partly drawn) [Example 33, (4R)-4-methyl-2-(1-methylpyrazolo[3,4-b]pyridin-4-yl)-6-(4-pyrrolidin-3-ylsulfonylpiperazin-1-yl)-3,4-dihydro-1H-isoquinoline] |
| 3 nM | Cc1cc(N2Cc3ccc(N4C[C@@H](N)[C@H](O)C4)cc3[C@@H](C)C2)c2cnn(C)c2n1 [Example 47, trans-4-amino-1-[(4R)-2-(1,6-dimethylpyrazolo[3,4-b]pyridin-4-yl)-4-methyl-3,4-dihydro-1H-isoquinolin-6-yl]pyrrolidin-3-ol] |
| 10 nM | C[C@H]1CN(c2ccnc3c2cnn3C)Cc2ccc(N3CC4(CCNCC4)OC3=O)cc21 [Example 26, 3-[(4R)-4-methyl-2-(1-methylpyrazolo[3,4-b]pyridin-4-yl)-3,4-dihydro-1H-isoquinolin-6-yl]-1-oxa-3,8-diazaspiro[4.5]decan-2-one] |
| 6 nM | C[C@H]1CN(c2ccnc3c2cnn3C)Cc2ccc(N3C[C@@]4(CCNC4)CC3=O)cc21 (single isomer, unassigned) [Example 53] |

| SMILES | IC50 |
| --- | --- |
| CO[C@@H]1CN(c2ccc3c(n2)[C@@H](C)CN(c2cc(C)nc4c2cnn4C)C3)C[C@H]1N [Example 63, (3R,4R)-4-methoxy-1-[(8S)-6-(1,6-dimethylpyrazolo[3,4-b]pyridin-4-yl)-8-methyl-7,8-dihydro-5H-1,6-naphthyridin-2-yl]pyrrolidin-3-amine] | 16 nM |
| C[C@H]1CN(c2ccnc3c2cnn3C)Cc2ccc(N3C4CCC3CNC4)cc21 [Example 27, (4R)-6-(3,8-diazabicyclo[3.2.1]octan-8-yl)-4-methyl-2-(1-methylpyrazolo[3,4-b]pyridin-4-yl)-3,4-dihydro-1H-isoquinoline] | 3 nM |
| C[C@H]1CN(c2ccnc3c2cnn3C)Cc2ccc(OC[C@@H]3CNCCN3)cc21 [Example 19, (4R)-4-methyl-2-(1-methylpyrazolo[3,4-b]pyridin-4-yl)-6-[[(2S)-piperazin-2-yl]methoxy]-3,4-dihydro-1H-isoquinoline] | 4 nM |
| CO[C@@H]1CN(c2ccc3c(c2)[C@@H](C)CN(c2ccnc4c2cnn4C)C3)C[C@H]1N [Example 20, (3R,4R)-4-methoxy-1-[(4R)-4-methyl-2-(1-methylpyrazolo[3,4-b]pyridin-4-yl)-3,4-dihydro-1H-isoquinolin-6-yl]pyrrolidin-3-amine] | 17 nM |
